{"source": "ChEMBL document CHEMBL5154921", "about": "“Discovery and Characterization of the First Nonpeptide Antagonists for the Relaxin-3/RXFP3 System” (J Med Chem, 2022)", "key": {"[1]": {"assay": "Unbound clearence in Wistar rat plasma at 10 mg/kg, ip measured upto 8 hrs post dose by LC-MS/MS analysis", "format": "ADME, organism-based", "settings": "in vivo"}, "[2]": {"molecular_target": "Muscarinic acetylcholine receptor M1 (Homo sapiens) (UniProt P11229)", "sequence (P11229 whole entry)": "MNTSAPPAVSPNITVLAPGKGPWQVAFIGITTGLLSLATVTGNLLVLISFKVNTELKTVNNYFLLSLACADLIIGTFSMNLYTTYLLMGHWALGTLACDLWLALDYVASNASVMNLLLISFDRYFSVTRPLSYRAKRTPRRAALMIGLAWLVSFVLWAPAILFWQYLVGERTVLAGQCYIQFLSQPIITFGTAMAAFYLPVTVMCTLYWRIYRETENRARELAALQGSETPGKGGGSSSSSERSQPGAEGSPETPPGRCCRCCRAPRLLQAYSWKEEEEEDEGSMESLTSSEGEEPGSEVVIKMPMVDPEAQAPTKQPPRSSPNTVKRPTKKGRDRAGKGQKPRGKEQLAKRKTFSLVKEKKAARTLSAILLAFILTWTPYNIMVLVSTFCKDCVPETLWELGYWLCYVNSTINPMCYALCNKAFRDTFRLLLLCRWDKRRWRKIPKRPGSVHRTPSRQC", "assay": "Inhibition of muscarinic M1 receptor (unknown origin) at 10 uM relative to control"}, "[3]": {"molecular_target": "Relaxin-3 receptor 1 (Homo sapiens) (UniProt Q9NSD7)", "assay": "Negative allosteric modulator activity at human RXFP3 expressed in CHO-K1 cells assessed as [35S]GTPgammaS binding at 10 to 30 uM incubated for 1 hr by [35S]GTP-gammaS binding assay", "format": "functional, cell-based", "settings": "filed as negative allosteric modulator, dose 10-30 µM"}, "[4]": {"molecular_target": "Mu-type opioid receptor (Homo sapiens) (UniProt P35372)", "sequence (P35372 whole entry)": "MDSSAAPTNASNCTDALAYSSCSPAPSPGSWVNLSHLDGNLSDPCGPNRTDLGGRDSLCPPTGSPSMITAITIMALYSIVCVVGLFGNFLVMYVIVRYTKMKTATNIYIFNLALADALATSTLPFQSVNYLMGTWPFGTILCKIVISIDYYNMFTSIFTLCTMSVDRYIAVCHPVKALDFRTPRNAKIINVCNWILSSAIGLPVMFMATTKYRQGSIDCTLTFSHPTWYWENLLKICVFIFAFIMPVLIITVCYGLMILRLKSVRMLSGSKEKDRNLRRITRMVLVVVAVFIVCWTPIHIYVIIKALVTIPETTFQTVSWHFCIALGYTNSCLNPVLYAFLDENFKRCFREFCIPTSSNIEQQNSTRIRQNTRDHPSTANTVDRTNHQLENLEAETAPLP", "assay": "Inhibition of opioid u receptor (unknown origin) at 10 uM relative to control"}, "[5]": {"assay": "Apparent permeability of the compound across apical to basolateral side in MDCK-MDRI cells measured upto 90 min by LC-MS/MS analysis", "format": "ADME, cell-based, Canis lupus familiaris", "settings": "dog, mdck-mdr1, 1.5 h"}, "[6]": {"molecular_target": "5-hydroxytryptamine receptor 3A (Homo sapiens) (UniProt P46098)", "assay": "Inhibition of serotonin 5-HT3 receptor (unknown origin) at 10 uM relative to control"}, "[7]": {"assay": "Efflux ratio of apparent permeability across basolateral to apical side over apical to basolateral side in MDCK-MDR1 cells measured upto 90 min by LC-MS/MS analysis", "format": "ADME, cell-based, Canis lupus familiaris", "settings": "dog, mdck-mdr1, 1.5 h"}, "[8]": {"assay": "Plasma protein binding in Wister rat at 1 uM measured after 6 hrs by LC-MS/MS analysis", "format": "ADME, cell-free"}, "[9]": {"molecular_target": "Sodium-dependent noradrenaline transporter (Homo sapiens) (UniProt P23975)", "assay": "Inhibition of NET receptor (unknown origin) at 10 uM relative to control"}, "[10]": {"molecular_target": "Sodium-dependent dopamine transporter (Homo sapiens) (UniProt Q01959)", "sequence (Q01959 whole entry)": "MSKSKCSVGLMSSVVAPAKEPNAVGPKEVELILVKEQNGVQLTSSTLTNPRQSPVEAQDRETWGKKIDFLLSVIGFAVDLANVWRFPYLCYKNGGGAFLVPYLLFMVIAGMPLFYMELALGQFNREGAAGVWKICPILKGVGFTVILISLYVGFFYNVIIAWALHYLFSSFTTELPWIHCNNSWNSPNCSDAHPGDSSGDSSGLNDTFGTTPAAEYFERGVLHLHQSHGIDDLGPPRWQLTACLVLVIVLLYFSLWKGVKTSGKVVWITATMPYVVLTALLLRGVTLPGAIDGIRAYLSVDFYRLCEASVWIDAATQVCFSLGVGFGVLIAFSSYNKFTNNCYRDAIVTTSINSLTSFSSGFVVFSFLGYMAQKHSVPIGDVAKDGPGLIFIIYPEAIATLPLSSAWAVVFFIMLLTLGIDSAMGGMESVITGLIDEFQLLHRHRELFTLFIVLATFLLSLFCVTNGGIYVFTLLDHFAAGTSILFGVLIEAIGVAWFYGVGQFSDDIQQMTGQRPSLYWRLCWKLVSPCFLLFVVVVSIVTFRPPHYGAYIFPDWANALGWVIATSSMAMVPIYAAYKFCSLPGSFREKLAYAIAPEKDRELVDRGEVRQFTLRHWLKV", "assay": "Inhibition of DAT receptor (unknown origin) at 10 uM relative to control"}, "[11]": {"molecular_target": "Muscarinic acetylcholine receptor M2 (Homo sapiens) (UniProt P08172)", "sequence (P08172 whole entry)": "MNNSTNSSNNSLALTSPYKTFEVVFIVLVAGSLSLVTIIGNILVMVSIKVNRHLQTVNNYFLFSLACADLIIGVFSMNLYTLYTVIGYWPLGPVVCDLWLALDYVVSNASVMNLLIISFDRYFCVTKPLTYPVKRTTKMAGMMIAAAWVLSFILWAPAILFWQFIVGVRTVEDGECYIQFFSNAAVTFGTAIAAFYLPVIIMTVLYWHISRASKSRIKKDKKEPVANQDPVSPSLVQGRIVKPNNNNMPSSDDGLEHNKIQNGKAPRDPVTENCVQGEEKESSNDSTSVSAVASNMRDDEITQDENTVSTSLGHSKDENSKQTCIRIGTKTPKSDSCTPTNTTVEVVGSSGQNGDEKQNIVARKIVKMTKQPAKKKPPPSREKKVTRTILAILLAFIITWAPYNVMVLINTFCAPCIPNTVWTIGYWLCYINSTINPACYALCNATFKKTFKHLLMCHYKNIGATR", "assay": "Inhibition of muscarinic M2 receptor (unknown origin) at 10 uM relative to control"}, "[12]": {"molecular_target": "Alpha-1A adrenergic receptor (Homo sapiens) (UniProt P35348)", "assay": "Inhibition of adrenergic alpha-1A receptor (unknown origin) at 10 uM relative to control"}, "[13]": {"molecular_target": "Alpha-2B adrenergic receptor (Homo sapiens) (UniProt P18089)", "sequence (P18089 whole entry)": "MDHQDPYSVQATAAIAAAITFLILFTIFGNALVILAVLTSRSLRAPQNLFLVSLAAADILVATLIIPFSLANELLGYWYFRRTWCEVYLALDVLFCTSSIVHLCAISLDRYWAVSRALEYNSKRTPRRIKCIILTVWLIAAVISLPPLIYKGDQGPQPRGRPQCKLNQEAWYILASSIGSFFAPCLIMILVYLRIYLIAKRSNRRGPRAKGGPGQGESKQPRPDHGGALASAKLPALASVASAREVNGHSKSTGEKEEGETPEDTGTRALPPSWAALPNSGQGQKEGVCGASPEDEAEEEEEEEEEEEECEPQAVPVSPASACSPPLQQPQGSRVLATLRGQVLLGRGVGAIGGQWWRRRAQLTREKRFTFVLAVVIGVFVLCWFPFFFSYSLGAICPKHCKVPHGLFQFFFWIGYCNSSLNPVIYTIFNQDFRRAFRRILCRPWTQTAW", "assay": "Inhibition of adrenergic alpha-2B receptor (unknown origin) at 10 uM relative to control"}, "[14]": {"assay": "Cmax in Wistar rat brain at 10 mg/kg, ip measured upto 8 hrs post dose by LC-MS/MS analysis", "format": "ADME, organism-based", "parameters": "time < 8 hrs, dose 10 mg/kg, route ip"}, "[15]": {"molecular_target": "5-hydroxytryptamine receptor 5A (Homo sapiens) (UniProt P47898)", "sequence (P47898 whole entry)": "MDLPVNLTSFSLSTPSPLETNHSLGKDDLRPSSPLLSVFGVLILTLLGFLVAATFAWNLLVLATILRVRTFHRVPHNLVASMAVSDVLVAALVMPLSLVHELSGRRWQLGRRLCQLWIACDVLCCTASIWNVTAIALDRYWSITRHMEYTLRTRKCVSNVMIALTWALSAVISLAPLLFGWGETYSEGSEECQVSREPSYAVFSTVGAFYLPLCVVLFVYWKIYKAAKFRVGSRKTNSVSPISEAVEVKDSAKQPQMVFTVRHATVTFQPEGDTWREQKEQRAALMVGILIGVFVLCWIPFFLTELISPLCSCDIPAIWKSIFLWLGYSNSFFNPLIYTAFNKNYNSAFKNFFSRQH", "assay": "Inhibition of serotonin 5-HT5A receptor (unknown origin) at 10 uM relative to control"}, "[16]": {"molecular_target": "Muscarinic acetylcholine receptor M3 (Homo sapiens) (UniProt P20309)", "assay": "Inhibition of muscarinic M3 receptor (unknown origin) at 10 uM relative to control"}, "Relaxin-3 receptor 1 [17]": {"molecular_target": "T1, Relaxin-3 receptor 1 (Homo sapiens, UniProt Q9NSD7)", "T1 sequence (Q9NSD7 whole entry)": "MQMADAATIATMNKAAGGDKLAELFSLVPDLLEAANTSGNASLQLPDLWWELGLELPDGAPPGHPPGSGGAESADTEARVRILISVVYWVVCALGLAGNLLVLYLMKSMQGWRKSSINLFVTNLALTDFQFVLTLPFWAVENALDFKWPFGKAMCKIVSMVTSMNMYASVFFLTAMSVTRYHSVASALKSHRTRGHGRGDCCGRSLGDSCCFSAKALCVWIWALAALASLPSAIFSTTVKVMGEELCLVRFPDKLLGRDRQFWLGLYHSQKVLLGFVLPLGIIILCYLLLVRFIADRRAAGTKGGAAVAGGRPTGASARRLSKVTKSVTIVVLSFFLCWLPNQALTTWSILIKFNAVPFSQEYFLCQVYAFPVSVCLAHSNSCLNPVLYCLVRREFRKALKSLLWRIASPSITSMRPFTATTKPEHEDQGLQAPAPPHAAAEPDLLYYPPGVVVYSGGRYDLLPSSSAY", "assay": "Antagonist activity at human RXFP3 expressed in CHO-K1 cells assessed as inhibition of relaxin-3 stimulated ERK1/2 phosphorylation preincubated for 15 mins followed by relaxin-3 addition for 5 mins", "format": "functional, cell-based"}, "[18]": {"molecular_target": "Sigma non-opioid intracellular receptor 1 (Homo sapiens) (UniProt Q99720)", "assay": "Inhibition of sigma1 receptor (unknown origin) at 10 uM relative to control"}, "[19]": {"molecular_target": "Histamine H4 receptor (Homo sapiens) (UniProt Q9H3N8)", "assay": "Inhibition of histamine H4 receptor (unknown origin) at 10 uM relative to control"}, "[20]": {"molecular_target": "Delta-type opioid receptor (Homo sapiens) (UniProt P41143)", "sequence (P41143 whole entry)": "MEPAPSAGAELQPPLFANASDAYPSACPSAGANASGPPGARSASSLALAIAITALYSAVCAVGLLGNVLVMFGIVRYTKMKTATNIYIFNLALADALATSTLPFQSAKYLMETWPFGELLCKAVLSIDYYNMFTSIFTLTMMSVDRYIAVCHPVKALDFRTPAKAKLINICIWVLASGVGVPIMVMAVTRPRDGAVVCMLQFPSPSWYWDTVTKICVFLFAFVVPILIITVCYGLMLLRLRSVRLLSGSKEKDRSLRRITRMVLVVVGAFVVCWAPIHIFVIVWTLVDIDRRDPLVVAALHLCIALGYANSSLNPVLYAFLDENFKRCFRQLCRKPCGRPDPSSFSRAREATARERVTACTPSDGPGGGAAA", "assay": "Inhibition of opioid delta receptor (unknown origin) at 10 uM relative to control"}, "[21]": {"molecular_target": "Kappa-type opioid receptor (Homo sapiens) (UniProt P41145)", "assay": "Inhibition of opioid kappa receptor (unknown origin) at 10 uM relative to control"}, "[22]": {"molecular_target": "D(3) dopamine receptor (Homo sapiens) (UniProt P35462)", "sequence (P35462 whole entry)": "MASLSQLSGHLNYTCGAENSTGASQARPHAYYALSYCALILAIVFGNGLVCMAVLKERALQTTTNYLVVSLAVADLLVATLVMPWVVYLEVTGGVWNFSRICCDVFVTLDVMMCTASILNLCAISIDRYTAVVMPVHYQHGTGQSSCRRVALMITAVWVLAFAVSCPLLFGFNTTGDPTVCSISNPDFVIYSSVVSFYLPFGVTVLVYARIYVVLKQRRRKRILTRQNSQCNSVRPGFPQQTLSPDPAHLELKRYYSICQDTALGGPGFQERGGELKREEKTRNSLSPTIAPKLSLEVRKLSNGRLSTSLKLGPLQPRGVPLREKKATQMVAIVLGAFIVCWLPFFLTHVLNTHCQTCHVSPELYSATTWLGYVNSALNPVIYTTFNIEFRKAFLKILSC", "assay": "Inhibition of dopamine D3 receptor (unknown origin) at 10 uM relative to control"}, "[23]": {"molecular_target": "Relaxin-3 receptor 1 (Homo sapiens) (UniProt Q9NSD7)", "assay": "Negative allosteric modulator activity at human RXFP3 expressed in CHO-K1 cells assessed as forskolin-induced cAMP accumulation at 3 to 30 uM measured after 30 mins in presence of relaxin-3 by TR-FRET assay", "format": "functional, cell-based", "settings": "filed as negative allosteric modulator, dose 3-30 µM"}, "[24]": {"molecular_target": "Histamine H2 receptor (Homo sapiens) (UniProt P25021)", "sequence (P25021 whole entry)": "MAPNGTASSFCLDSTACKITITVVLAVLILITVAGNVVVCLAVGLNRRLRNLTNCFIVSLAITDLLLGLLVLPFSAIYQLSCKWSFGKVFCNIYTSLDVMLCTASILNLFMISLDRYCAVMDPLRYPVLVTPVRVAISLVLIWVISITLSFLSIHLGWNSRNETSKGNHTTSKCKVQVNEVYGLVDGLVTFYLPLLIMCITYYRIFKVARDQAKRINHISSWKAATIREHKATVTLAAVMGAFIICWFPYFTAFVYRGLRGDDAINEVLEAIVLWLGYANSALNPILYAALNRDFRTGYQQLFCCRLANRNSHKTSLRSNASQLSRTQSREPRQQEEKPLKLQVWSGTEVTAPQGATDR", "assay": "Inhibition of histamine H2 receptor (unknown origin) at 10 uM relative to control"}, "Relaxin-3 receptor 1 [25]": {"molecular_target": "T1, Relaxin-3 receptor 1", "assay": "Antagonist activity at human RXFP3 expressed in CHO-K1 cells assessed as [35S]GTPgammaS binding incubated for 1 hr by [35S]GTP-gammaS binding assay", "format": "functional, cell-based"}, "[26]": {"molecular_target": "Alpha-2C adrenergic receptor (Homo sapiens) (UniProt P18825)", "sequence (P18825 whole entry)": "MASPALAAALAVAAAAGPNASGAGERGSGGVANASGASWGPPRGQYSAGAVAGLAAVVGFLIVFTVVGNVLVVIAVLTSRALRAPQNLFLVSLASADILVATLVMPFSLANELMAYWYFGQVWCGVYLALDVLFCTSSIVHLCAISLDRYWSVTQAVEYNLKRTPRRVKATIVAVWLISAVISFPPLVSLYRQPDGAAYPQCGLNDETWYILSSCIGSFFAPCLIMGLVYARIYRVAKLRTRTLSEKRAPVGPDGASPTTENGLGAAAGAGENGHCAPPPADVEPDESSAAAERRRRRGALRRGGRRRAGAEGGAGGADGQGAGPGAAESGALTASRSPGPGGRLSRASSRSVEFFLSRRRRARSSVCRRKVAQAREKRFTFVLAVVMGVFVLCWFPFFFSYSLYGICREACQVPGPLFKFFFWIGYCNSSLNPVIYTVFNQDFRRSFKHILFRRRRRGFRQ", "assay": "Inhibition of adrenergic alpha-2C receptor (unknown origin) at 10 uM relative to control"}, "[27]": {"molecular_target": "Muscarinic acetylcholine receptor M4 (Homo sapiens) (UniProt P08173)", "assay": "Inhibition of muscarinic M4 receptor (unknown origin) at 10 uM relative to control"}, "[28]": {"molecular_target": "Sigma intracellular receptor 2 (Homo sapiens, UniProt Q5BJF2)", "sequence (Q5BJF2 whole entry)": "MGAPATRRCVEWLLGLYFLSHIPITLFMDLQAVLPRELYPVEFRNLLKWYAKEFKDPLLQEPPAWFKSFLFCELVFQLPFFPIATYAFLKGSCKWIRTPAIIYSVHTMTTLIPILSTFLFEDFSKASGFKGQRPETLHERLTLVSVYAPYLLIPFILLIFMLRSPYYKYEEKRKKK", "assay": "Inhibition of sigma-2 receptor (unknown origin) at 10 uM relative to control"}, "[29]": {"molecular_target": "Beta-3 adrenergic receptor (Homo sapiens) (UniProt P13945)", "sequence (P13945 whole entry, looked up)": "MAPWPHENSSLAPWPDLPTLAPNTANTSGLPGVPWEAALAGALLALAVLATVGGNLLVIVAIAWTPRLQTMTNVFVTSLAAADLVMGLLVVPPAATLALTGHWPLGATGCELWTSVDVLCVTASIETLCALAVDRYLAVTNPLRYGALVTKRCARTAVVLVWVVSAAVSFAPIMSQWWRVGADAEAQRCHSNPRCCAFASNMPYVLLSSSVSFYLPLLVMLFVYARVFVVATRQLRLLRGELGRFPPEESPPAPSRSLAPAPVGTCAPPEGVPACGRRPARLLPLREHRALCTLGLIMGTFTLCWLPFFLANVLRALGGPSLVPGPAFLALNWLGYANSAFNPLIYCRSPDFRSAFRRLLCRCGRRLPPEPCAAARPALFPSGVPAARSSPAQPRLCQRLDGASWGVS", "assay": "Inhibition of adrenergic beta-3 receptor (unknown origin) at 10 uM relative to control"}, "[30]": {"molecular_target": "Histamine H1 receptor (Homo sapiens) (UniProt P35367)", "assay": "Inhibition of histamine H1 receptor (unknown origin) at 10 uM relative to control"}, "[31]": {"molecular_target": "Beta-2 adrenergic receptor (Homo sapiens) (UniProt P07550)", "assay": "Inhibition of adrenergic beta-2 receptor (unknown origin) at 10 uM relative to control"}, "[32]": {"assay": "Half life in Wistar rat brain at 10 mg/kg, ip measured upto 8 hrs post dose by LC-MS/MS analysis", "format": "ADME, organism-based", "settings": "in vivo"}}, "note": "Calls of active or inactive are those of the source. No cut-off for these calls is given here.", "data": [{"compound": "O=C(Nc1ccc(-c2nc(-c3ccc(Cl)cc3)no2)cc1)C1CC(=O)N(Cc2ccco2)C1", "note": "(configuration not stated)", "values": [{"measurement": "CL free", "setting": "[1]", "result": 43.8, "unit": "mL/min/kg"}, {"measurement": "inhibition", "setting": "[2]", "result": "< 50", "unit": "%"}, {"measurement": "Activity", "setting": "[3]", "result": "Active"}, {"measurement": "inhibition", "setting": "[4]", "result": "< 50", "unit": "%"}, {"measurement": "Papp", "setting": "[5]", "result": "1.3 10^-6 cm/s"}, {"measurement": "inhibition", "setting": "[6]", "result": "< 50", "unit": "%"}, {"measurement": "Ratio", "setting": "[7]", "result": 1}, {"measurement": "PPB", "setting": "[8]", "result": 99.8, "unit": "%"}, {"measurement": "inhibition", "setting": "[9]", "result": "< 50", "unit": "%"}, {"measurement": "inhibition", "setting": "[10]", "result": "< 50", "unit": "%"}, {"measurement": "inhibition", "setting": "[11]", "result": 51, "unit": "%"}, {"measurement": "inhibition", "setting": "[12]", "result": "< 50", "unit": "%"}, {"measurement": "inhibition", "setting": "[13]", "result": "< 50", "unit": "%"}, {"measurement": "Cmax", "setting": "[14]", "result": 1550, "unit": "ng/mL"}, {"measurement": "inhibition", "setting": "[15]", "result": "< 50", "unit": "%"}, {"measurement": "inhibition", "setting": "[16]", "result": "< 50", "unit": "%"}, {"measurement": "IC50", "setting": "Relaxin-3 receptor 1 [17]", "result": 13.9, "unit": "µM"}, {"measurement": "inhibition", "setting": "[18]", "result": "< 50", "unit": "%"}, {"measurement": "inhibition", "setting": "[19]", "result": "< 50", "unit": "%"}, {"measurement": "inhibition", "setting": "[20]", "result": "< 50", "unit": "%"}, {"measurement": "inhibition", "setting": "[21]", "result": "< 50", "unit": "%"}, {"measurement": "inhibition", "setting": "[22]", "result": "< 50", "unit": "%"}, {"measurement": "Activity", "setting": "[23]", "result": "Active"}, {"measurement": "inhibition", "setting": "[24]", "result": "< 50", "unit": "%"}, {"measurement": "IC50", "setting": "Relaxin-3 receptor 1 [25]", "result": 4.52, "unit": "µM"}, {"measurement": "inhibition", "setting": "[26]", "result": "< 50", "unit": "%"}, {"measurement": "inhibition", "setting": "[27]", "result": "< 50", "unit": "%"}, {"measurement": "inhibition", "setting": "[28]", "result": 95, "unit": "%"}, {"measurement": "inhibition", "setting": "[29]", "result": "< 50", "unit": "%"}, {"measurement": "inhibition", "setting": "[30]", "result": "< 50", "unit": "%"}, {"measurement": "inhibition", "setting": "[31]", "result": "< 50", "unit": "%"}, {"measurement": "t1/2", "setting": "[32]", "result": 4.9, "unit": "h"}]}]}
